Reference: patent publication US11180474B2 (BRISTOL-MYERS SQUIBB COMPANY, priority 2016, dated 2021)

Legend:
TLR9 = assay: In vivo mouse TLR9 PD model (CpG-ODN challenge, plasma IL-6); settings: oral
Description: In Vivo Mouse TLR7 and TLR9 PD Model:
Adult male C57BL/6 mice were used for the experiments. Mice (7 to 10 per group) were randomized into different treatment groups based on body weight. Mice from the respective treatment groups were administered orally with vehicle or test compound. Thirty min after the oral administration of vehicle or test compound, mice were challenged with intraperitoneal injection of gardiquimod for TLR7 PD model and CpG-ODN for TLR9 PD model. Ninety minutes after gardiquimod injection and 120 minutes after CpG-ODN injection, mice were bled under isoflurane anaesthesia and plasma IL-6 level was estimated by using commercially available ELISA kit (BD Biosciences). At the end of experiment, mean cytokine data was plotted and one way ANOVA with Dunnett's test was performed to calculate the significance of test compound treated group vs. vehicle control group. Percent inhibition of cytokine induction was calculated for test compound treated group vs vehicle control group.

[1] = tested on: MRL/lpr model of Systemic Lupus Erythematosus; assay: MRL/lpr model of systemic lupus erythematosus (SLE); format: in vivo, mouse; settings: MRL/lpr mice, oral once daily 8 weeks
Description: MRL/Lpr Model of Systemic Lupus Erythematosus (SLE) Male MRL/lpr mice of 12-14 weeks age were screened and randomized based on the titers of anti-dsDNA antibodies and urinary NGAL (Neutrophil Gelatinase Associated Lipocalin). Mice were treated orally, once daily for 8 weeks with vehicle or test compound. The effect of test compound on disease severity was assessed by measuring end points including proteinuria, urinary-NGAL, anti-dsDNA Ab titer, and lymphadenopathy. These end points were assessed before the start of treatment and after 4 and 8 weeks of treatment. At the end of experiment, all mice were euthanized by CO2 asphyxiation and kidney samples were subjected for histology. At the end of experiment, one way ANOVA with Dunnett's test was performed to calculate the significance of test compound treated group vs. vehicle control group. Percent reduction in disease severity was calculated for each parameter, for test compound treated group vs vehicle control group. A cumulative disease score and the percent reduction in cumulative disease score was calculated by considering the average inhibition in all parameters except lymphadenopathy to reflect the impact on the overall severity of disease progression.

human TLR9 = molecular target: T1, human TLR9 (Homo sapiens, UniProt Q9NR96); assay: TLR9 inhibition reporter assay (HEK-Blue cells, SEAP reporter, ODN2006 stimulation); format: cell-based; settings: HEK-Blue cells overexpressing human TLR9, ODN2006 5 nM
T1 construct: host or cells: HEK-Blue cells
T1 sequence (Q9NR96 26-1032): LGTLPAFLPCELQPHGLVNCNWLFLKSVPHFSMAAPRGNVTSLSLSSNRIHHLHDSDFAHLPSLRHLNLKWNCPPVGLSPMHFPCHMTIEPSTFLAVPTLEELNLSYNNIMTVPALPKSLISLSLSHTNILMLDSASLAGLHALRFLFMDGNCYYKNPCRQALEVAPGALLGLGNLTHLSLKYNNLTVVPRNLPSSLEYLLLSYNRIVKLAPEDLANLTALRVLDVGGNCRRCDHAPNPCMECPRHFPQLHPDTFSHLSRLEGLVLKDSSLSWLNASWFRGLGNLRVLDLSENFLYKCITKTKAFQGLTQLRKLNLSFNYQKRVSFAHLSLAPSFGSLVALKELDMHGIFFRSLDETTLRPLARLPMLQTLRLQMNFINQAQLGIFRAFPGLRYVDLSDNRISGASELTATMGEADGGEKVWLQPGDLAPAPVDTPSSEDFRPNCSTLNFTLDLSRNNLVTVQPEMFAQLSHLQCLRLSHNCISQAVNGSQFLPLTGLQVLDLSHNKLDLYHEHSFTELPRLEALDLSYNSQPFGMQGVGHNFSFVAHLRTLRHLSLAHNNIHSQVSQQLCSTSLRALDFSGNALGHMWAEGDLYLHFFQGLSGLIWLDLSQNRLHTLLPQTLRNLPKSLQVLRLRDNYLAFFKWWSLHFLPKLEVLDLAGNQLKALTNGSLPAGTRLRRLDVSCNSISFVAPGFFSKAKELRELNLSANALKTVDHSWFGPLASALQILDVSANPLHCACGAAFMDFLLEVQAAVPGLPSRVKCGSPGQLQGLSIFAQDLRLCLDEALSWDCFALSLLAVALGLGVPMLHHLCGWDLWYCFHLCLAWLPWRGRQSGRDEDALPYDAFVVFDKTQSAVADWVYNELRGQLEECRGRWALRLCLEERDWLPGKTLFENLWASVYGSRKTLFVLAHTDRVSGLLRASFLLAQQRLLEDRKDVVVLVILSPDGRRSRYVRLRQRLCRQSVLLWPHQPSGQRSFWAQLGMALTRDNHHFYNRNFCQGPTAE
How it was run: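 HEK-Blue cells overexpressing human TLR7, TLR8 or TLR9 carry a SEAP reporter driven by NF-κB/AP-1 sites. Compounds (0.05 nM–50 μM) were preincubated 30 min at room temperature, then cells were stimulated with gardiquimod 7.5 μM (TLR7), R848 15.9 μM (TLR8) or ODN2006 5 nM (TLR9) for 22 h at 37 °C.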

`COc1ccc(-c2[nH]c3ccc(C4CCN(C(=O)CN(C)C)CC4)cc3c2C(C)C)cc1OC` [Example 209, 1-(4-(2-(3,4-dimethoxyphenyl)-3-isopropyl-1H-indol-5-yl)piperidin-1-yl)-2-(dimethylamino)ethan-1-one] was tested, and the “% inhibition of IL6” value (TLR9; dose 1 mg/kg) was 29%, the “% inhibition of IL6” value (TLR9; dose 10 mg/kg) was 37% and the “% inhibition of IL6” value (TLR9; dose 30 mg/kg) was 37%. The “% inhibition of IL6” value (TLR9; dose 100 mg/kg) was 51%, the “% inhibition Anti-dsDNA antibody titer” value ([1]; dose 1 mg/kg) was 44% and the “% inhibition Cumulative score” value ([1]; dose 1 mg/kg) was 42%. The “% inhibition IL-10” value ([1]; dose 1 mg/kg) was 10%, the “% inhibition IL-12p40” value ([1]; dose 1 mg/kg) was 13% and the “% inhibition Lymphadenopathy” value ([1]; dose 1 mg/kg) was 35%. For the same compound, the “% inhibition Proteinuria” value ([1]; dose 1 mg/kg) was 46%, the “% inhibition Urinary NGAL” value ([1]; dose 1 mg/kg) was 36% and the “% inhibition Anti-dsDNA antibody titer” value ([1]; dose 2 mg/kg) was 57%. For the same compound, the “% inhibition Cumulative score” value ([1]; dose 2 mg/kg) was 55%, the “% inhibition IL-10” value ([1]; dose 2 mg/kg) was 22% and the “% inhibition IL-12p40” value ([1]; dose 2 mg/kg) was 24%. The “% inhibition Lymphadenopathy” value ([1]; dose 2 mg/kg) was 38%, the “% inhibition Proteinuria” value ([1]; dose 2 mg/kg) was 57% and the “% inhibition Urinary NGAL” value ([1]; dose 2 mg/kg) was 52%. For the same compound, the “% inhibition Anti-dsDNA antibody titer” value ([1]; dose 5 mg/kg) was 67%, the “% inhibition Cumulative score” value ([1]; dose 5 mg/kg) was 61% and the “% inhibition IL-10” value ([1]; dose 5 mg/kg) was 36%. The “% inhibition IL-12p40” value ([1]; dose 5 mg/kg) was 18%, the “% inhibition Lymphadenopathy” value ([1]; dose 5 mg/kg) was 50% and the “% inhibition Proteinuria” value ([1]; dose 5 mg/kg) was 61%. For the same compound, the “% inhibition Urinary NGAL” value ([1]; dose 5 mg/kg) was 54%, the “% inhibition Anti-dsDNA antibody titer” value ([1]; dose 7.5 mg/kg) was 70% and the “% inhibition Cumulative score” value ([1]; dose 7.5 mg/kg) was 67%. The “% inhibition IL-10” value ([1]; dose 7.5 mg/kg) was 36%, the “% inhibition IL-12p40” value ([1]; dose 7.5 mg/kg) was 27% and the “% inhibition Lymphadenopathy” value ([1]; dose 7.5 mg/kg) was 58%. The “% inhibition Proteinuria” value ([1]; dose 7.5 mg/kg) was 68%, the “% inhibition Urinary NGAL” value ([1]; dose 7.5 mg/kg) was 62% and the IC50 (human TLR9) was 1.66 µM.

`COc1ccc(-c2[nH]c3ccc(C4CCN(C(=O)CNCCO)CC4)cc3c2C(C)C)cc1OC` [Example 212, 1-(4-(2-(3,4-dimethoxyphenyl)-3-isopropyl-1H-indol-5-yl)piperidin-1-yl)-2-((2-hydroxyethyl)amino)ethan-1-one] showed an IC50 (human TLR9) of 1.19 µM.

`CCc1c(-c2ccc(OC)c(OC)c2)[nH]c2ccc(C3CCN(C4CCN(Cc5cc(C)n(C)n5)CC4)CC3)cc12` [Example 144, 2-(3,4-dimethoxyphenyl)-5-(1′-((1,5-dimethyl-1H-pyrazol-3-yl)methyl)-[1,4′-bipiperidin]-4-yl)-3-ethyl-1H-indole] was tested, and the IC50 (human TLR9) was 0.495 µM.
